≈ marks a conversion by molar mass, not a printed value. A value given as a limit tells only on which side of the number the result lay.

Holding throughout (assay): ≥ marks a high value that may be exact or a test limit, other limits are often not marked, values filed in µg/mL are converted to µM
Assay [1] has as its system Staphylococcus epidermidis KCTC 1917.
Assay [2] relates to Enterococcus faecium.
The subject of assay [3] is Escherichia coli KCTC 1682.
Assay [4] has as its system Staphylococcus aureus.
The test system of assay [5] is Bacillus subtilis KCTC 3068.
Assay [6] deals with Pseudomonas aeruginosa KCTC 1637.
Assay [7] has as its system Salmonella typhimurium KCTC 1926.
The subject of assay [8] is Staphylococcus aureus KCTC 1621.
For assay [9], the system named is Escherichia coli BL21.
Assay [10] concerns Staphylococcus aureus USA 300.
Assay [11] has as its system Streptococcus pyogenes M1T1 5448.
Assay [12] concerns Pseudomonas aeruginosa PAO1.
Assay [13] has as its system Escherichia coli JW0013.
For assay [14], the system named is Staphylococcus aureus CCARM 3089.
Assay [15] deals with Staphylococcus aureus USA 100.
Assay [16] has as its system Candida albicans ATCC 90028.
The test system of assay [17] is Pseudomonas aeruginosa ATCC 9027.
Assay [18] relates to Escherichia coli.
Assay [19] concerns Streptococcus pyogenes.
The test system of assay [20] is Bacillus subtilis.
The test system of assay [21] is Staphylococcus epidermidis.
The test system of assay [22] is Salmonella typhimurium.
Assay [23] concerns Proteus vulgaris.
The subject of assay [24] is Pseudomonas aeruginosa.
Assay [25] deals with Pectobacterium carotovorum.

For `NC(N)=NCCC[C@H](NC(=O)[C@H](CCCN=C(N)N)NC(=O)[C@H](Cc1ccccc1)NC(=O)[C@@H]1CCCN1C(=O)[C@H](Cc1c[nH]c2ccccc12)NC(=O)[C@H](Cc1c[nH]c2ccccc12)NC(=O)[C@H](Cc1c[nH]c2ccccc12)NC(=O)[C@@H]1CCCN1C(=O)[C@H](Cc1ccccc1)NC(=O)[C@H](CCCN=C(N)N)NC(=O)[C@@H](N)CCCN=C(N)N)C(=O)O` [RRFPWWWPFRR], the MIC (usually the lowest concentration found to suppress growth) in assay [1] was found to be 1.18 µM (≈ 2 µg/mL); in assay [2] it was 2.37 µM (≈ 4 µg/mL); in assay [3] it was 9.47 µM (≈ 16 µg/mL); in assay [4], 3.35 µM (≈ 5.66 µg/mL); in assay [5], 2.37 µM (≈ 4 µg/mL); in assay [6] it was 9.47 µM (≈ 16 µg/mL). Moreover, the MIC in assay [7] was determined as 4.73 µM (≈ 8 µg/mL); in assay [8], 2.37 µM (≈ 4 µg/mL).
Turning to `CC[C@H](C)[C@H](NC(=O)[C@H](CO)NC(=O)[C@H](CCC(=O)O)NC(=O)[C@H](CCCN=C(N)N)NC(=O)CNC(=O)[C@H](C)N)C(=O)N[C@@H](CCCCN)C(=O)N[C@@H](C)C(=O)N[C@@H](Cc1ccc(O)cc1)C(=O)N[C@@H](CC(C)C)C(=O)N[C@@H](CCCCN)C(=O)N[C@@H](CCCCN)C(=O)N[C@@H](CCC(=O)O)C(=O)N[C@H](C(=O)N[C@@H](CCCCN)C(=O)N[C@@H](CCCCN)C(=O)N[C@@H](CCCCN)C(=O)N[C@@H](Cc1c[nH]c2ccccc12)C(=O)N[C@@H](CCCCN)C(=O)N[C@@H](CCCN=C(N)N)C(=O)N[C@@H](C)C(=O)N[C@H](C(=O)N[C@H](C(=O)N[C@@H](C)C(=O)N[C@@H](Cc1c[nH]c2ccccc12)C(=O)O)[C@@H](C)CC)C(C)C)[C@@H](C)CC` [AGRESIKAYLKKEIKKKWKRAVIAW], the MIC in assay [9] is 4 µM (≈ 12 µg/mL); in assay [10], ≥ 128 µM; in assay [11], 16 µM (≈ 48 µg/mL); in [12], 16 µM (≈ 48 µg/mL).
On to `CC[C@H](C)[C@H](NC(=O)[C@H](CCCCN)NC(=O)[C@H](CCCCN)NC(=O)[C@H](CCCCN)NC(=O)[C@H](CC(C)C)NC(=O)[C@H](Cc1ccccc1)NC(=O)[C@H](CCC(N)=O)NC(=O)[C@H](CCCN=C(N)N)NC(=O)[C@@H](NC(=O)[C@@H](NC(=O)[C@H](CCC(=O)O)NC(=O)[C@H](CCCCN)NC(=O)CNC(=O)[C@H](C)N)[C@@H](C)O)[C@@H](C)CC)C(=O)N[C@@H](CCC(N)=O)C(=O)N[C@@H](CCC(=O)O)C(=O)N[C@@H](CCCCN)C(=O)NCC(=O)N[C@@H](CCCCN)C(=O)N[C@@H](CCCN=C(N)N)C(=O)N[C@@H](C)C(=O)N[C@H](C(=O)N[C@H](C(=O)N[C@@H](C)C(=O)N[C@@H](Cc1c[nH]c2ccccc12)C(=O)O)[C@@H](C)CC)[C@@H](C)O` [AGKETIRQFLKKKIQEKGKRATIAW], for which the minimal inhibitory concentration (MIC) is ≥ 32 µM in [9], 8 µM (≈ 23.4 µg/mL) in [11] and > 128 µM in assay [12].
Compound `CC(C)C[C@H](NC(=O)[C@H](CCCN=C(N)N)NC(=O)[C@@H]1CCCN1C(=O)[C@H](Cc1cnc[nH]1)NC(=O)[C@@H]1CCCN1C(=O)[C@@H]1CCCN1C(=O)[C@H](CCCN=C(N)N)NC(=O)[C@@H]1CCCN1C(=O)[C@H](CCC(N)=O)NC(=O)[C@@H]1CCCN1C(=O)[C@H](CCCN=C(N)N)NC(=O)[C@H](Cc1ccc(O)cc1)NC(=O)[C@@H](NC(=O)[C@@H]1CCCN1C(=O)[C@H](CCCN=C(N)N)NC(=O)[C@H](CC(N)=O)NC(=O)[C@H](CC(N)=O)NC(=O)CN)C(C)C)C(=O)O` [GNNRPVYRPQPRPPHPRL] gave an MIC in [13] of 0.3 µM (≈ 0.645 µg/mL).
For `CC[C@H](C)[C@H](NC(=O)[C@H](CCCN=C(N)N)NC(=O)[C@H](CCCCN)NC(=O)[C@@H](NC(=O)[C@@H](NC(=O)[C@H](CCCN=C(N)N)NC(=O)[C@@H](N)CCCCN)[C@@H](C)CC)C(C)C)C(=O)N[C@@H](CCCCN)C(=O)N[C@@H](CCCCN)C(=O)N[C@@H](Cc1c[nH]c2ccccc12)C(=O)N[C@@H](CC(C)C)C(=O)N[C@@H](CCCN=C(N)N)C(N)=O` [KRIVKRIKKWLR], the MIC came out at 1 µM (≈ 1.62 µg/mL) in assay [1]; 4 µM (≈ 6.49 µg/mL) in assay [14]; 2 µM (≈ 3.25 µg/mL) in [3]; 2 µM (≈ 3.25 µg/mL) in [5]; 8 µM (≈ 13 µg/mL) in assay [6]; 2 µM (≈ 3.25 µg/mL) in assay [7]. In assay [8], this compound registered an MIC of 2 µM (≈ 3.25 µg/mL).
Regarding `CC[C@H](C)[C@H](N)C(=O)N[C@@H](CCCN=C(N)N)C(=O)N[C@H](C(=O)N[C@@H](CCCN=C(N)N)C(N)=O)[C@@H](C)CC` [IRIR], in assay [15], the MIC was ≥ 100 µM.
Consider `NC(=O)C[C@H](NC(=O)[C@H](Cc1ccccc1)NC(=O)[C@@H](N)Cc1c[nH]c2ccccc12)C(=O)O` [WFN], for which the MIC in assay [15] was ≥ 100 µM; in assay [10], ≥ 100 µM; in [16], ≥ 100 µM; in assay [17] it was > 100 µM.
`CC[C@H](C)[C@H](NC(=O)[C@H](CCCN=C(N)N)NC(=O)[C@H](CCCN=C(N)N)NC(=O)[C@@H]1CCCN1C(=O)[C@@H]1CCCN1C(=O)[C@H](CCCN=C(N)N)NC(=O)[C@@H]1CCCN1C(=O)[C@H](CCCN=C(N)N)NC(=O)[C@@H]1CCCN1C(=O)[C@H](CC(C)C)NC(=O)[C@H](Cc1ccc(O)cc1)NC(=O)[C@@H]1CCCN1C(=O)[C@H](CCSC)NC(=O)[C@H](CCCCN)NC(=O)[C@H](CC(=O)O)NC(=O)[C@@H](N)C(C)C)C(=O)N[C@@H](Cc1ccc(O)cc1)C(=O)N[C@@H](CC(N)=O)C(=O)N[C@@H](CCCN=C(N)N)C(N)=O` [VDKMPYLPRPRPPRRIYNR] yielded an MIC in assay [13] of 1.28 µM (≈ 3.1 µg/mL).
In the case of `CC[C@H](C)[C@H](NC(=O)[C@H](Cc1ccccc1)NC(=O)[C@H](C)NC(=O)[C@H](CCCCN)NC(=O)[C@H](CCCCN)NC(=O)CNC(=O)[C@H](CCCN=C(N)N)NC(=O)[C@H](CCCCN)NC(=O)[C@H](CCCN=C(N)N)NC(=O)[C@H](CC(C)C)NC(=O)[C@H](CCC(=O)O)NC(=O)[C@H](CCC(=O)O)NC(=O)[C@H](CCCCN)NC(=O)[C@H](CC(C)C)NC(=O)[C@H](Cc1ccc(O)cc1)NC(=O)[C@H](CC(C)C)NC(=O)[C@@H](NC(=O)[C@H](CC(C)C)NC(=O)[C@H](C)NC(=O)[C@H](CCC(N)=O)NC(=O)[C@H](CCCN=C(N)N)NC(=O)CNC(=O)[C@H](C)N)[C@@H](C)O)C(=O)N[C@@H](C)C(=O)N[C@@H](Cc1c[nH]c2ccccc12)C(=O)O` [AGRQALTLYLKEELRKRGKKAFIAW], the MIC is ≥ 32 µM in [9], 16 µM (≈ 47.2 µg/mL) in [11] and > 128 µM in assay [12].
Consider `CC(C)C[C@H](NC(=O)[C@H](CCCN=C(N)N)NC(=O)[C@@H]1CCCN1C(=O)[C@H](Cc1cnc[nH]1)NC(=O)[C@@H]1CCCN1C(=O)[C@@H]1CCCN1C(=O)[C@H](CCCN=C(N)N)NC(=O)[C@@H]1CCCN1C(=O)[C@H](CCC(N)=O)NC(=O)[C@@H]1CCCN1)C(=O)O` [PQPRPPHPRL], for which the minimal inhibitory concentration (MIC) in assay [18] is 64 µM (≈ 76.4 µg/mL); in assay [19], ≥ 64 µM; in assay [20], ≥ 64 µM; in [21] it was ≥ 64 µM; in assay [22], 16 µM (≈ 19.1 µg/mL); in assay [23], ≥ 64 µM. Besides, in [24], the MIC amounted to 64 µM (≈ 76.4 µg/mL).
On to `CC(C)C[C@H](NC(=O)[C@H](Cc1ccccc1)NC(=O)CNC(=O)[C@H](C)NC(=O)[C@H](Cc1ccccc1)NC(=O)[C@@H](NC(=O)[C@H](CCCN=C(N)N)NC(=O)[C@H](CC(=O)O)NC(=O)[C@H](CCCCN)NC(=O)[C@H](CCC(=O)O)NC(=O)[C@@H](N)CCC(N)=O)[C@@H](C)O)C(=O)N[C@@H](CC(C)C)C(=O)N[C@@H](CCCCN)C(=O)NCC(=O)N[C@@H](Cc1ccccc1)C(=O)NCC(=O)N[C@H](C(=O)N[C@@H](CO)C(=O)N[C@@H](C)C(=O)N[C@@H](CO)C(=O)O)[C@@H](C)O` [QEKDRTFAGFLLKGFGTSAS], for which the MIC in assay [25] is 1.34 µM.
